Test results taken from US8217058B2, “Substituted piperidino phenyloxazolidinones” (Wockhardt Ltd., priority 2006, dated 2012).
Values after ≈ are worked out from the molar mass of the structure shown.

Key:
[1] = test system: Staphylococcus epidermidis STE-110 MRSE; assay: MIC test (agar dilution); type: cell-based; conditions: Mueller Hinton agar, 24 h at 35° C.
[2] = test system: Streptococcus pneumoniae ATCC 49619; assay: MIC test (agar dilution); type: cell-based; conditions: Mueller Hinton agar, 24 h at 35° C.
[3] = test system: Staphylococcus aureus ATCC 29213; assay: MIC test (agar dilution); type: cell-based; conditions: Mueller Hinton agar, 24 h at 35° C.
[4] = test system: Staphylococcus aureus MRSA-032; assay: MIC test (agar dilution); type: cell-based; conditions: Mueller Hinton agar, 24 h at 35° C.
Procedure: The in vitro MIC methods of test compounds were determined essentially as described in WO 95/25106, U.S. Pat. No. 5,668,286 and EP 0 750 618 B1.
Overnight grown cultures of MRSA-032 organisms in Tryptic Soya broth were diluted in Mueller Hinton Broth to give optical density matching with MacFarland tube 0.5 standard. Cultures were further diluted 1:10 in Mueller Hinton broth. Using Denley's multipoint inoculator, 10^4 cells were deposited on Mueller Hinton agar (Difco) containing range of 2 fold dilutions of test compounds. […] MIC is defined as minimum drug concentration that inhibits test organisms.

[5] = test system: Enterococcus faecium Efa-303; assay: MIC test (agar dilution); type: cell-based; conditions: Mueller Hinton agar, 24 h at 35° C.
[6] = test system: Streptococcus group B ATCC 12386; assay: MIC test (agar dilution); type: cell-based; conditions: Mueller Hinton agar, 24 h at 35° C.
[7] = test system: Staphylococcus aureus Mu-50 VISA; assay: MIC test (agar dilution); type: cell-based; conditions: Mueller Hinton agar, 24 h at 35° C.
[8] = test system: Enterococcus faecalis Efe-406 VRE; assay: MIC test (agar dilution); type: cell-based; conditions: Mueller Hinton agar, 24 h at 35° C.
[9] = test system: Streptococcus group C ATCC 12388; assay: MIC test (agar dilution); type: cell-based; conditions: Mueller Hinton agar, 24 h at 35° C.
[10] = test system: Streptococcus pneumoniae ATCC 6303; assay: MIC test (agar dilution); type: cell-based; conditions: Mueller Hinton agar, 24 h at 35° C.
[11] = test system: Streptococcus agalactiae ATCC 13813; assay: MIC test (agar dilution); type: cell-based; conditions: Mueller Hinton agar, 24 h at 35° C.
[12] = Oral pharmacokinetic study in dog, serum concentrations by HPLC; type: in vivo; set-up: Serum concentration: unit not given here; conditions: for Serum concentration: dog, 15 mg/kg p.o
Procedure: Oral (15 mg/kg p.o) pharmacokinetic studies were done in dog. Blood samples were collected at time points of 0, 0.08 (not for oral), 0.25, 0.50, 1.0, 1.5, 2.0, 3.0, 4.0, 5.0, 6.0, 8.0, 10.0, 12.0 and 24.0 h. To facilitate IV dosing and collection of blood samples, the dogs were implanted with cannula in cephalic vein. Serum obtained from blood samples was used for HPLC-based analysis.
Serum samples were extracted by solid phase extraction technique using Water's OASIS HLB cartridges. An HPLC-Diode array detection system was used for analysis. Prepared samples were chromatographed on a YMC-AM reversed phase column (150×4.6 mm ID; 5 μm) using an isocratic mobile phase acetate buffer (50 mmol ammonium acetate pH 6.6) acetonitrile, 66:34% v/v (for a representative compound of the invention) at a flow rate of 1 ml/min, measured at λmax 254 nm. Independently prepared analytical standards and quality control samples were analyzed with each set of unknown samples.

[13] = test system: Streptococcus group F ATCC 12392; assay: MIC test (agar dilution); type: cell-based; conditions: Mueller Hinton agar, 24 h at 35° C.
[14] = test system: Streptococcus pyogenes ATCC 25147; assay: MIC test (agar dilution); type: cell-based; conditions: Mueller Hinton agar, 24 h at 35° C.
[15] = test system: Enterococcus faecalis ATCC 29212; assay: MIC test (agar dilution); type: cell-based; conditions: Mueller Hinton agar, 24 h at 35° C.
[16] = test system: Streptococcus group G ATCC 12394; assay: MIC test (agar dilution); type: cell-based; conditions: Mueller Hinton agar, 24 h at 35° C.
[17] = test system: Staphylococcus aureus Smith; assay: MIC test (agar dilution); type: cell-based; conditions: Mueller Hinton agar, 24 h at 35° C.
[18] = test system: Staphylococcus aureus ATCC 25923; assay: MIC test (agar dilution); type: cell-based; conditions: Mueller Hinton agar, 24 h at 35° C.
[19] = test system: Enterococcus faecium Efa-332 VRE; assay: MIC test (agar dilution); type: cell-based; conditions: Mueller Hinton agar, 24 h at 35° C.
[20] = test system: Staphylococcus aureus STA-014; assay: MIC test (agar dilution); type: cell-based; conditions: Mueller Hinton agar, 24 h at 35° C.
[21] = test system: Staphylococcus epidermidis STE-118; assay: MIC test (agar dilution); type: cell-based; conditions: Mueller Hinton agar, 24 h at 35° C.

`COCC1(O)CCN(c2c(F)cc(N3C[C@H](CNC(C)=O)OC3=O)cc2F)CC1` [Example-11, (5S)—N-{3-[3,5-difluoro-4-(4-hydroxy-(4-methoxymethyl)-piperidin-1yl)phenyl]-2-oxo-oxazolidin-5-ylmethyl}-acetamide] showed an MIC [1] of 1 µg/mL (≈ 2.42 µM), an MIC [2] of 2 µg/mL (≈ 4.84 µM) and an MIC [3] of 2 µg/mL (≈ 4.84 µM). For the same molecule, the MIC [4] was 4 µg/mL (≈ 9.68 µM), the MIC [5] was 4 µg/mL (≈ 9.68 µM) and the MIC [6] was 2 µg/mL (≈ 4.84 µM). The MIC [7] was 2 µg/mL (≈ 4.84 µM), the MIC [8] was 4 µg/mL (≈ 9.68 µM) and the MIC [9] was 2 µg/mL (≈ 4.84 µM). The MIC [10] was 2 µg/mL (≈ 4.84 µM), the MIC [11] was 2 µg/mL (≈ 4.84 µM) and the “Serum concentrations relative to the MIC value” ([12]; dog pharmacokinetic study, up to 24 h post dosing) was “significantly higher serum concentrations above the MIC value up to 24 h post dosing”. The Serum concentration ([12]; time point 0.0 hr) was 0.0, the Serum concentration ([12]; time point 0.25 hr) was 4.14 and the Serum concentration ([12]; time point 0.5 hr) was 5.41. For the same molecule, the Serum concentration ([12]; time point 1.0 hr) was 8.76, the Serum concentration ([12]; time point 2.0 hr) was 11.42 and the Serum concentration ([12]; time point 3.0 hr) was 10.97. For the same molecule, the Serum concentration ([12]; time point 4.0 hr) was 10.37, the Serum concentration ([12]; time point 5.0 hr) was 8.81 and the Serum concentration ([12]; time point 6.0 hr) was 7.28 ± 2.14. For the same molecule, the Serum concentration ([12]; time point 8.0 hr) was 5.82 ± 1.58, the Serum concentration ([12]; time point 10.0 hr) was 4.50 ± 1.03 and the Serum concentration ([12]; time point 12.0 hr) was 3.47 ± 1.25. It also gave a Serum concentration ([12]; time point 24.0 hr) of 2.19 ± 1.91, an MIC [13] of 2 µg/mL (≈ 4.84 µM) and an MIC [14] of 2 µg/mL (≈ 4.84 µM). The MIC [15] was 2 µg/mL (≈ 4.84 µM), the MIC [16] was 2 µg/mL (≈ 4.84 µM) and the MIC [17] was 2 µg/mL (≈ 4.84 µM). The MIC [18] was 2 µg/mL (≈ 4.84 µM), the MIC [19] was 2 µg/mL (≈ 4.84 µM) and the MIC [20] was 4 µg/mL (≈ 9.68 µM). The MIC [21] was 1 µg/mL (≈ 2.42 µM).
